The text below walks through data of ChEMBL document CHEMBL1142385, “Nitro as a novel zinc-binding group in the inhibition of carboxypeptidase A” (Bioorg Med Chem, 2008).

The assay deals with T1, Carboxypeptidase A1 (Homo sapiens, UniProt P15085).
T1 sequence (P15085 whole entry): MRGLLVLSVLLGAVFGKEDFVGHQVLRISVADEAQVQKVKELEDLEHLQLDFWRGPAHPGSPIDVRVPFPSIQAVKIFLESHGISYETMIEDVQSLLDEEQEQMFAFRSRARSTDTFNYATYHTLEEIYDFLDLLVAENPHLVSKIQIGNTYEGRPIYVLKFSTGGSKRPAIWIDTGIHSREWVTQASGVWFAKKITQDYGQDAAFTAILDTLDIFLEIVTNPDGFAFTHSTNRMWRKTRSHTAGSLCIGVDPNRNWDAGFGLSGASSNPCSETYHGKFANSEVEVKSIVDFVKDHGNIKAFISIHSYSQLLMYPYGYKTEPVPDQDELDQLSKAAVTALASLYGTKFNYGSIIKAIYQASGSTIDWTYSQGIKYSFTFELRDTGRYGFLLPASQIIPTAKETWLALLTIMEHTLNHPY
As to the kind of experiment: Inhibition of CPA.
With `O=C(O)C[C@@H](Cc1ccccc1)C(=O)O`, the affinity corresponds to a Ki of 450 nM.

Turning to `O=C(O)[C@@H](Cc1ccccc1)C[N+](=O)[O-]`, the affinity corresponds to a Ki of 68000 nM.

For `C=CCC(C[N+](=O)[O-])C(=O)O` (racemic), the Ki (in general, a dissociation constant, usually derived from enzyme kinetics or from competition with a known ligand) amounted to 62600 nM.

Turning to `O=C(O)C(Cc1ccccc1)C[N+](=O)[O-]` (racemic), the inhibitory constant (Ki) was determined as 790 nM.

Consider `CC(C)CC(C[N+](=O)[O-])C(=O)O` (racemic), for which the affinity corresponds to a Ki of 2080 nM.
